Reference: patent publication US8580813B2, “Cyclic azaindole-3-carboxamides, their preparation and their use as pharmaceuticals” (Sanofi, priority 2008, dated 2013)

Target: T1, Recombinant human renin (Homo sapiens, UniProt P00797)
T1 construct: purchased Cayman 10006217
T1 sequence (P00797 67-406): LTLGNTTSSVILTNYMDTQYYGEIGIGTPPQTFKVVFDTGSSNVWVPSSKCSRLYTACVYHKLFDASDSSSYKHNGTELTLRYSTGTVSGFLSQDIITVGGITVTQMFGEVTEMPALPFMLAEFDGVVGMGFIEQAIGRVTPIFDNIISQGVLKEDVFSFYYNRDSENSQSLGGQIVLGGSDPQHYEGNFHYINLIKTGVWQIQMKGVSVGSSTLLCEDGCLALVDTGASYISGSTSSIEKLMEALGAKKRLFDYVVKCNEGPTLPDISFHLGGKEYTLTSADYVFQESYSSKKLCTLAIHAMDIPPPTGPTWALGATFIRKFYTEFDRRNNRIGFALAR
Assay: Inhibition of renin (fluorogenic peptide substrate)
Type: biochemical
Conditions: recombinant human renin 5 nM, substrate 10 μM, 2 h at room temperature, Tris buffer pH 8; compounds tested as the obtained salt
Procedure: M-2050; […] The increase in fluorescence, which is due to fluorescence resonance energy transfer, was recorded at an excitation wavelength of 330 nm and an emission wavelength of 485 nm in a microplate spectrofluorometer. Inhibitory concentrations IC50 were calculated from the percentage of inhibition of renin activity as a function of the concentration of the test compound. […] Representative IC50 values, which were determined with the compounds in the form of the obtained salt indicated in the examples above, are listed in table 8.

CC(c1ccccc1)c1c(C(=O)N2CCNCC2)c2ncccc2n1-c1ccccc1 (stereo not shown) [Example 50, [1-Phenyl-2-(1-phenyl-ethyl)-1H-pyrrolo[3,2-b]pyridin-3-yl]-piperazin-1-yl-methanone]
IC50: 1 µM

Cc1ccc(F)cc1Sc1c(C(=O)N2CCN[C@@H](C)C2)c2ncccc2n1-c1ccccc1 [Example 139, [2-(5-Fluoro-2-methyl-phenylsulfanyl)-1-phenyl-1H-pyrrolo[3,2-b]pyridin-3-yl]-((S)-3-methyl-piperazin-1-yl)-methanone]
IC50: 0.19 µM

Cc1ccccc1Oc1c(C(=O)N2CCNCC2)c2ncccc2n1-c1ccccc1 [Example 1, [1-Phenyl-2-(2-methyl-phenoxy)-1H-pyrrolo[3,2-b]pyridin-3-yl]-piperazin-1-yl-methanone]
IC50: 0.25 µM

Cc1ccccc1Cc1c(C(=O)N2CCNCC2)c2ncccc2n1-c1ccccc1 [Example 3, [2-(2-Methyl-benzyl)-1-phenyl-1H-pyrrolo[3,2-b]pyridin-3-yl]-piperazin-1-yl-methanone]
IC50: 0.12 µM

Cc1c(F)cccc1Cc1c(C(=O)N2CCNCC2)c2cc(O)cnc2n1-c1ccccc1 [Example 31, [2-(3-Fluoro-2-methyl-benzyl)-5-hydroxy-1-phenyl-1H-pyrrolo[2,3-b]pyridin-3-yl]-piperazin-1-yl-methanone]
IC50: 0.0056 µM

COC[C@H]1CN(C(=O)c2c(Oc3c(C)cccc3C)n(-c3ccccc3)c3cccnc23)CCN1 [Example 89]
IC50: 0.29 µM

Cc1ccc(F)cc1Oc1c(C(=O)N2CCNCC2)c2ccnc(Cl)c2n1-c1ccccc1 [Example 38, [7-Chloro-2-(5-fluoro-2-methyl-phenoxy)-1-phenyl-1H-pyrrolo[2,3-c]pyridin-3-yl]-piperazin-1-yl-methanone]
IC50: 0.32 µM

Cc1cccc(C)c1Oc1c(C(=O)N2CCN[C@@H](CC(C)C)C2)c2ncccc2n1-c1ccccc1 [Example 97]
IC50: 7 µM

COC(=O)CC1CN(C(=O)c2c(Oc3c(C)cccc3C)n(-c3ccccc3)c3cccnc23)CCN1 (stereo not shown) [Example 58, {4-[2-(2,6-Dimethyl-phenoxy)-1-phenyl-1H-pyrrolo[3,2-b]pyridine-3-carbonyl]-piperazin-2-yl}-acetic acid methyl ester]
IC50: 0.057 µM

COc1cc2c(C(=O)N3CCNCC3)c(Cc3cccc(F)c3C)n(-c3ccccc3)c2cn1 [Example 22, [2-(3-Fluoro-2-methyl-benzyl)-5-methoxy-1-phenyl-1H-pyrrolo[2,3-c]pyridin-3-yl]-piperazin-1-yl-methanone]
IC50: 0.85 µM

Cc1c(F)cccc1Cc1c(C(=O)N2CCNCC2)c2cccnc2n1-c1ccccc1 [Example 27, [2-(3-Fluoro-2-methyl-benzyl)-1-phenyl-1H-pyrrolo[2,3-b]pyridin-3-yl]-piperazin-1-yl-methanone]
IC50: 0.086 µM

Cc1c(F)cccc1Cc1nccc2c(C(=O)N3CCNCC3)c(Cc3cccc(F)c3C)n(-c3ccccc3)c12 [Example 40, [2,7-Bis-(3-fluoro-2-methyl-benzyl)-1-phenyl-1H-pyrrolo[2,3-c]pyridin-3-yl]-piperazin-1-yl-methanone]
IC50: 0.0051 µM

Cc1c(F)cccc1Cc1c(C(=O)N2CCN[C@@H](CO)C2)c2cnc(O)cc2n1C1CCCCC1 [Example 116]
IC50: 1.1 µM

Cc1c(F)cccc1Oc1c(C(=O)N2CCNCC2)c2cccnc2n1-c1ccccc1 [Example 129]
IC50: 0.17 µM

CNC(=O)CC1CN(C(=O)c2c(Oc3c(C)cccc3C)n(-c3ccccc3)c3cccnc23)CCN1 (stereo not shown) [Example 59, 2-{4-[2-(2,6-Dimethyl-phenoxy)-1-phenyl-1H-pyrrolo[3,2-b]pyridine-3-carbonyl]-piperazin-2-yl}-N-methyl-acetamide]
IC50: 0.07 µM

Cc1cccc(C)c1Oc1c(C(=O)N2CCNCC2)c2cnc(O)cc2n1C1CCCCC1 [Example 49, [1-Cyclohexyl-2-(2,6-dimethyl-phenoxy)-6-hydroxy-1H-pyrrolo[3,2-c]pyridin-3-yl]-piperazin-1-yl-methanone]
IC50: 0.08 µM

CCOc1cnc2c(C(=O)N3CCNCC3)c(Oc3c(C)cccc3C)n(-c3ccccc3)c2c1 [Example 54, [2-(2,6-Dimethyl-phenoxy)-6-ethoxy-1-phenyl-1H-pyrrolo[3,2-b]pyridin-3-yl]-piperazin-1-yl-methanone]
IC50: 0.077 µM

O=C(c1c(Cc2c(F)cccc2Cl)n(-c2ccccc2)c2ccncc12)N1CCNCC1 [Example 13, [2-(2-Chloro-6-fluoro-benzyl)-1-phenyl-1H-pyrrolo[3,2-c]pyridin-3-yl]-piperazin-1-yl-methanone]
IC50: 0.1 µM

CCCc1ccnc2c1c(C(=O)N1CCNCC1)c(Oc1cc(F)ccc1C)n2-c1ccccc1 [Example 133]
IC50: 1.85 µM

COc1ccc2c(C(=O)N3CCNCC3)c(Oc3c(C)cccc3C)n(-c3ccccc3)c2n1 [Example 134]
IC50: 0.003 µM

Cc1cccc(C)c1Oc1c(C(=O)N2CCNCC2)c2ncc(OCC(=O)O)cc2n1-c1ccccc1 [Example 57, [2-(2,6-Dimethyl-phenoxy)-1-phenyl-3-(piperazine-1-carbonyl)-1H-pyrrolo[3,2-b]pyridin-6-yloxy]-acetic acid]
IC50: 0.11 µM

COc1cc2c(cn1)c(C(=O)N1CCN[C@@H](C)C1)c(Cc1cccc(F)c1C)n2C1CCCCC1 [Example 113]
IC50: 0.32 µM

Cc1ccc(F)c(C)c1Oc1c(C(=O)N2CCNCC2)c2ccncc2n1-c1ccccc1 [Example 37, [2-(3-Fluoro-2,6-dimethyl-phenoxy)-1-phenyl-1H-pyrrolo[2,3-c]pyridin-3-yl]-piperazin-1-yl-methanone]
IC50: 0.0017 µM

Cc1c(F)cc(F)cc1Oc1c(C(=O)N2CCNCC2)c2ncccc2n1-c1ccccc1 [Example 111]
IC50: 0.65 µM

Cc1cccc(C)c1Oc1c(C(=O)N2CCNCC2Cc2ccccc2)c2ncccc2n1-c1ccccc1 (stereo not shown) [Example 106]
IC50: 0.42 µM
